Experimental data taken from PubChem BioAssay AID624384 (Sanford-Burnham Center for Chemical Genomics, 2012).
Activity calls are given as the source filed them. No rule for the calls is given here.

Target: Small ubiquitin-related modifier 2 (Homo sapiens) (UniProt P61956)
Test: inhibitors of SUMO2 protein-protein interaction, dose response, selectivity assay for SUMO1 interaction inhibitor project, biochemical, FRET, human SUMO2, uHTS hits (AID 624384)

Sequence of Small ubiquitin-related modifier 2 (Homo sapiens) (P61956 whole entry, looked up): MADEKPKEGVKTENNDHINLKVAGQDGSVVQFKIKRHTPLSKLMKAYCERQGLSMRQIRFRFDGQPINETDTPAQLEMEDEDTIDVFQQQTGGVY

## C[c-]1[c-](C)[c-](C)[c-](C)[c-]1C.[Fe].c1cc2nccc(N3CCCC3)[c-]2c1 (stereo unspecified)
  IC50: > 66 µM (inactive)
